From patent US5556744A, “Methods and compositions for diagnosing and treating certain HIV infected patients” (The Trustees of the University of Pennsylvania, priority 1994, dated 1996)

Legend:
HIV-IIIB viral isolate = test: Neutralization assay (HIV-IIIB, Hut-78 cells, p24 antigen ELISA); type: cell-based, HIV-1 IIIB
Method: The H9 cell line (a cutaneous T lymphoma line) infected by HIV-IIIB [ATCC CRL 8543] was used in the neutralization assay. The H9 cell line infected by HIV-MN was used in the anti-syncytial assays. SupT1 and Hut78 cells were used as the target cell lines for the anti-syncytial and neutralization assays. All cell lines were obtained from the National Institutes of Health AIDS Repository (Bethesda, Md.).
In a neutralization assay, 20 μl of maternal sera samples was placed in 96 round bottom well plates at final dilutions of 1:10, 1:90 and 1:810 in RPMI. The HIV-IIIB viral isolate was diluted in RPMI to a TCID50 of 100 units/ml. Twenty μl of the virus solution was placed in each well and the plate was incubated for one hour at 4° C. Hut-78 cells were incubated with 2 μg/ml of polybrene for one hour at 37° C. in a CO2 incubator. The HUT-78 cells were washed and resuspended in fresh RPMI to a final concentration of 4×10^6 cells/ml. Ten μl of the cell suspension was added to each well and the plate was incubated for one hour in a 37° C., CO2 incubator.
Fifteen μl of the serum/cell/virus solution was aliquoted to a new plate containing 200 μl of fresh RPMI and incubated for 6 days. After 6 days, 100 μl was used to analyze for p24 antigen. The p24 capture ELISA assay kit (Coulter Corporation, Hialeah, Fla.) was used to perform the measurements.
Further, sera samples at the same dilutions as described above were tested for residual p24 core protein or antibody to insure the results were due only to viral infection.

[1] = tested on: maternal serum samples (antibodies); test: ELISA peptide-binding of maternal sera, expanded peptide collection (Example 5); parameters: species or system human
How it was run: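 Maternal sera diluted 1:50 or 1:500 in 1% BSA/PBS/0.05% Tween 20 were tested by ELISA on 10 μg/mL HIV IIIB gp120/gp41 peptides (~18 residues, ≥85% pure). Binding scored positive at experimental/control OD450nm ratio ≥2; HIV-seronegative human sera served as controls.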

TLPCASDAKAYDTEV [Peptide 93]
Number of samples which bound the peptide and possessed neutralization activity (HIV-IIIB viral isolate; sera which bound the peptide): 3
Percent of samples which bound the peptide and possessed neutralization activity (HIV-IIIB viral isolate; sera which bound the peptide): 50%
Binding / reactivity of maternal sera to peptide (in words) ([1]; Example 5): Differences in binding between the transmission and non-transmission groups are noted

CFRPGGGDMRDNWREL [Peptide 466]
Neutralizing activity of non-transmission sera which reacted with the peptide (HIV-IIIB viral isolate; Example 5): All 3 of these sera exhibited neutralizing activity
Number of samples which bound the peptide and possessed neutralization activity (HIV-IIIB viral isolate; sera which bound the peptide): all of them
Number of non-transmission sera that reacted with the peptide ([1]; of 13 non-transmission sera): 3
